Assay results reported in patent US12295938B2, “Composition for treating castration-resistant prostate cancer, comprising quassinoids” (SAMSUNG LIFE PUBLIC WELFARE FOUNDATION, priority 2019, dated 2025).
Read-outs that look alike come from different tables or passages of the source.

Experiments:
[1] = system: AR-V7 transcriptional activity; assay: MMTV-LUC luciferase reporter assay in 22RV1 cells, DHT− (screening and IC50); assay type: cell-based
Protocol: (§2) A library of antimalarial agents was screened using a luciferase reporter assay to measure changes in AR/AR-V7 transcriptional activity.
(§3) Screening was made primarily with 10 μM of each drug.

[2] = system: AR transcriptional activity; assay: MMTV-LUC luciferase reporter assay in 22RV1 cells, DHT+ (screening and IC50); assay type: cell-based; conditions: Homo sapiens
Protocol: as §2, §3

[3] = system: hormone-dependent AR transcriptional activity; assay: MMTV-LUC reporter assay in LNCaP cells, hormone-dependent AR transcriptional activity; assay type: cell-based; conditions: Homo sapiens, LNCaP, read-out: IC50 (nM) DHT+
[4] = system: 22RV1 cells; assay: MTT cell growth inhibition assay, 22RV1; assay type: cell-based; conditions: 22RV1 cells
Protocol: In brief, 22RV1 cells were seeded at a density of 1×10^4 cells/well into 96-well plates and treated with each drug at 6 concentrations ranging from 5 nM to 200 nM for 72 hours. Afterwards, an MTT dye solution and a solubilization solution/stop mix were added according to an MTT assay method, followed by reading absorbance at 570 nm to analyze cell viability and IC50.

[5] = system: RWPE-1, DU145, PC3, LNCaP, C4-2B, C4-2B-MDVR and 22RV1 cells; assay: MTT cell growth assay on normal prostate and prostate cancer cell lines; assay type: cell-based; conditions: 1 nM to 5 nM, 72 hours; versus normal prostate cells and AR-negative prostate cancer cells
Protocol: Bruceantin was analyzed for inhibitory activity against cell growth of normal prostate cells (RWPE-1), AR-negative prostate cancer cells (DU145, PC3), AR-positive hormone-dependent prostate cancer cells (LNCaP, C4-2B), AR- & AR-V7-positive castration-resistant prostate cancer cells (C4-2B-MDVR and 22RV1) by an MTT assay method.
In brief, the cell lines were each seeded at a density of 1×10^4 cells/well into 96-well plates and incubated with each of the drugs at three concentrations ranging from 1 nM to 5 nM for 72 hours. Afterwards, an MTT dye solution and a solubilization solution/stop mix were added according to an MTT assay method, followed by reading absorbance at 570 nm to analyze cell viability. The data are depicted in FIG. 6.

[6] = system: 22RV1-xenografted mouse models; assay type: in vivo; parameters: Tumor (ave): unit not given here; conditions: for Tumor (ave): 1 mg/kg every 3 days subcutaneous
Protocol: (§1) While being subcutaneously injected with bruceantin at a dose of 1 mg/kg/every 3 days, 22RV1-xenografted mouse models were monitored for inhibitory effects on tumor growth and body weights.

[7] = mouse, in vivo; for AST/ALT (ave): sc
Protocol: FIG. 8b is a graph showing changes in blood AST/ALT ratio with doses of bruceantin subcutaneously injected to mice according to an embodiment of the present disclosure.
as §1

[8] = system: 22RV1 xenograft mouse models; assay type: in vivo; parameters: Tumor (ave): unit not given here; conditions: 2 mg/kg every 2 days oral
Protocol: In mouse models xenografted with the castration-resistant prostate cancer (CRPC) cell line 22RV1, bruceantin was analyzed for inhibitory effect on tumor growth. To this end, bruceantin was orally administered at a dose of 2 mg/kg/every 2 days to 22RV1 xenograft mouse models during which inhibition effects on tumor growth and body weights were monitored. The results are depicted in FIGS. 9a and 9b and Tables 11 and 12.

[9] = Hematobiochemical toxicity assay in 22RV1 xenograft mice; assay type: in vivo, mouse; conditions: for ALT (ave) / AST (ave) / AST/ALT (ave) / CK (ave) / Cr (ave) / LDH (ave): mouse, in vivo
Protocol: Briefly, in order to analyze toxicity of bruceantin in vivo, bloods from 22RV1 xenograft […] 3 days […] and oral administration at a dose of 2 mg/kg/every 2 days (p.o.), and the results are depicted in FIG. 10 and summarized in Table 13. • ALT: Alanine transaminase • AST: Aspartate transaminase • LDH: Lactate dehydrogenase • CR: Creatinine • CPK: Creatine phosphokinase

[10] = mouse, in vivo
Protocol: Anatomical and histological toxicity assays were performed on livers, kidneys and spleens from the mice subcutaneously injected with bruceantin. In order to analyze in vivo toxicity of bruceantin, liver, kidney, and spleen tissues from 22RV1 xenograft mouse models were analyzed after subcutaneous injection at a dose of 1 mg/kg/every 3 days, and the results are depicted in FIGS. 11a and 11b.
Anatomical and histological toxicity assays were performed on livers, kidneys and spleens from the mice to which bruceantin had been orally administered. In order to analyze in vivo toxicity of bruceantin, liver, kidney, and spleen tissues from 22RV1 xenograft mouse models were analyzed after oral administration at a dose of 2 mg/kg/every 2 days, and the results are depicted in FIGS. 12a and 12d.

[11] = system: 22RV1 metastasis mouse models; assay type: in vivo; conditions: 2 mg/kg every 2 days oral
Protocol: In order construct metastasis mouse models with the castration-resistant prostate cancer cell line 22RV1, the cells were subcutaneously injected into nude mice and the tumors was grown. Then, the tumors were harvested and injected into the left cardiac ventricle of nude mice to construct metastasis mouse models (see FIG. 13).
In the metastasis mouse models using the castration-resistant prostate cancer cell line 22RV1, bruceantin was analyzed for inhibitory effect on tumor metastasis and growth. In brief, the metastasis mice were monitored for inhibitory effects on tumor metastasis and growth and body weight while bruceantin was orally administered at a dose of 2 mg/kg/every 2 days thereto. The results are depicted in FIGS. 14a and 14b and Table 14.

## COC(=O)[C@@]12OC[C@]34[C@H]([C@@H](O)[C@@H]1O)[C@@]1(C)CC(=O)C(O)=C(C)[C@@H]1C[C@H]3OC(=O)[C@H](OC(=O)/C=C(\C)C(C)C)[C@@H]24 [Bruceantin, bruceantin]
[1]; Homo sapiens, 22RV1 cells, 0.1 uM, no DHT, control = 100
  activity at 0.1 µM: 13.4 ± 2.5%
[1]; Homo sapiens, 22RV1 cells, 1 uM, no DHT, control = 100
  activity at 1 µM: 15.2 ± 1.6%
[1]; Homo sapiens, 22RV1 cells, 10 uM, no DHT, control = 100
  activity at 10 µM: 16.4 ± 2.3%
[1]; Homo sapiens, 22RV1 cells, AR-V7 transcriptional activity
  IC50: 3.14 nM
[1]; in both CRPC 22RV1 cells and androgen-dependent LNCaP cells
  potency as inhibitor of AR/AR-V7 transcriptional activity compared with ailanthone: more potent inhibitors against AR/AR-V7 transcriptional activity
[2]; 0.1 uM, with DHT, control = 100
  activity at 0.1 µM: 4 ± 0.5%
[2]; 1 uM, with DHT, control = 100
  activity at 1 µM: 4.4 ± 0.3%
[2]; 10 uM, with DHT, control = 100
  activity at 10 µM: 3.9 ± 0.4%
[2]; AR transcriptional activity
  IC50: 2.08 nM
[3]
  IC50: 2.05 nM
[4]; versus ailanthone
  fold more potent inhibitory activity against CRPC cell growth than ailanthone: 16 fold
[4]; Homo sapiens, MTT, 72 hours, read-out: IC50 (22RV1 cell growth)
  IC50: 2.07 nM
[5]
  specificity of cell growth inhibition: inhibitory activity specifically against AR- and AR-V7-positive prostate cancer cells
[6]; Day 0
  Tumor (ave): 57.5
[6]; Day 3
  Tumor (ave): 81.7
[6]; Day 6
  Tumor (ave): 161.6
[6]; Day 9
  Tumor (ave): 250.2
[6]; Day 12
  Tumor (ave): 428.0
[6]; Day 15
  Tumor (ave): 676.3
[6]; Day 18
  Tumor (ave): 895.7
[6]; Day 21
  Tumor (ave): 938.5
[6]; Day 24
  Tumor (ave): 1005.7
[6]; nude mice, 22RV1 cells, dose of 1 mg/kg
  inhibition of in vivo tumor growth of CRPC cells: effectively inhibit in vivo tumor growth
[7]; 1 mg/kg
  effect on weights of the mice: no effect on weights of the mice
  hepatotoxicity: nor to cause hepatotoxicity
  AST/ALT (ave): 3.3
[7]; 0.5 mg/kg
  AST/ALT (ave): 2.5
[8]
  inhibition of tumor growth: effectively inhibit tumor growth
[8]; Day 0
  Tumor (ave): 73.0453
[8]; Day 3
  Tumor (ave): 89.5358
[8]; Day 5
  Tumor (ave): 75.35
[8]; Day 7
  Tumor (ave): 88.811
[8]; Day 9
  Tumor (ave): 157.6571
[8]; Day 11
  Tumor (ave): 189.9515
[8]; Day 13
  Tumor (ave): 256.5573
[8]; Day 15
  Tumor (ave): 348.6721
[8]; Day 17
  Tumor (ave): 485.1394
[8]; Day 19
  Tumor (ave): 567.0807
[8]; Day 21
  Tumor (ave): 616.549
[9]; compared to the control vehicle, both routes
  toxicity on blood indices: no toxicity on blood indices
[9]; ip, 1 mg/kg
  ALT (ave): 61.2
  AST (ave): 351
  AST/ALT (ave): 6.409
  CK (ave): 180
  Cr (ave): 0.156
  LDH (ave): 1098.6
[9]; po, 2 mg/kg
  ALT (ave): 72
  AST (ave): 263.4
  AST/ALT (ave): 3.658
  CK (ave): 247.5
  Cr (ave): 0.138
  LDH (ave): 1456.8
[10]; po, 2 mg/kg
  morphological and histological changes in liver, kidney, spleen: no morphological and histological changes (toxicity)
[10]; sc, 1 mg/kg
  morphological and histological changes in liver, kidney, spleen: no morphological and histological changes (toxicity)
[11]
  inhibitory effect on tumor metastasis and growth: inhibit metastatic tumor growth and the number of metastases
